Measured values reported in US20210171464A1 (OLON S.P.A., priority 2017, published 2021).

What was measured:
[1] = system: dopamine receptors; details: cited from earlier work
[2] = exposure to atmospheric humidity (stability, hygroscopicity); format: physicochemical

hygroscopicity [2] | stability when exposed to atmospheric humidity ([2]; exposed to atmospheric humidity) | Molecule | affinity for dopamine receptors [1]
– | – | N-(4-fluorobenzyl)-N-(1-methylpiperidin-4-yl)-N′ -(4-(2-methyl-propyloxy)phenylmethyl)carbamide hemitartrate [pimavanserin hemitartrate] | no affinity
not hygroscopic | stable | CC(C)COc1ccc(CNC(=O)N(Cc2ccc(F)cc2)C2CCN(C)CC2)cc1.CC(C)COc1ccc(CNC(=O)N(Cc2ccc(F)cc2)C2CCN(C)CC2)cc1.O=C(O)C(O)C(O)C(=O)O [N-(4-fluorobenzyl)-N-(1-methylpiperidin-4-yl)-N′-(4-(2-methylpropyloxy)-phenylmethyl)carbamide hemitartrate] | –
